The text below walks through data of ChEMBL document CHEMBL1146856, “Novel, orally bioavailable gamma-aminoamide CC chemokine receptor 2 (CCR2) antagonists” (J Med Chem, 2006).

In general, inhibition refers to the percentage by which the read-out fell short of the control. A higher inhibition goes with a response far below the control. By pIC50 is commonly meant −log10 of the IC50, conventionally taken in molar units. A lower pIC50 goes with a high IC50. The term clearance denotes the volume of plasma or blood freed of the substance per unit of time. A higher clearance goes with efficient removal. As usually defined, the bioavailability is the share of a dose that reaches the circulation, judged against a reference dose that is usually intravenous. By half-life is commonly meant how long it takes for the measured level to halve. Low values mean fast loss, high ones slow loss.

In data set [1] the target is T1, C-C chemokine receptor type 2 (Homo sapiens, UniProt P41597). Briefly: Inhibition of [125I]MCP1 binding to CCR2 expressed in CHO cells at 1 uM. The class given is cell-based.
Target sequence in this assay (P41597 whole entry, looked up): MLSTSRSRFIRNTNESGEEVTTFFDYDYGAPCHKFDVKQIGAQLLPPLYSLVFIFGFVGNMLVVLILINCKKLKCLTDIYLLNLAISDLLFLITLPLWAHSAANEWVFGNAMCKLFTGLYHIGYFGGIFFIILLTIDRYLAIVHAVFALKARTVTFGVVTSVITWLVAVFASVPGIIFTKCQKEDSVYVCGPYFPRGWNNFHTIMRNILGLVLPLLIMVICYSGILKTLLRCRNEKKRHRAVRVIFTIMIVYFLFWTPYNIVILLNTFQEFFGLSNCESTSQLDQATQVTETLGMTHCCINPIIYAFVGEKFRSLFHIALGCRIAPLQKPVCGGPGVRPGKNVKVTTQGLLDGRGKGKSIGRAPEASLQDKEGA
Data set [2] concerns the target T1, C-C chemokine receptor type 2. Briefly: Inhibition of [125I]MCP1 binding to CCR2 expressed in CHO cells. It counts as cell-based.
Target sequence in this assay (P41597 whole entry): as the sequence (P41597 whole entry, looked up) above
The subject of data set [3] is Monocyte. The data set can be described thus: Inhibition of MCP1-stimulated chemotaxis of human monocyte. The class given is functional, cell-based.
The next data set concerns the target Substance-P receptor (Homo sapiens, UniProt P25103). The data set can be described thus: Inhibition of NK1.
Data set [4] concerns the target T2, C-C chemokine receptor type 5 (Homo sapiens, UniProt P51681). The data set can be described thus: Inhibition of CCR5 at 0.01 uM.
Target sequence in this assay (P51681 whole entry, looked up): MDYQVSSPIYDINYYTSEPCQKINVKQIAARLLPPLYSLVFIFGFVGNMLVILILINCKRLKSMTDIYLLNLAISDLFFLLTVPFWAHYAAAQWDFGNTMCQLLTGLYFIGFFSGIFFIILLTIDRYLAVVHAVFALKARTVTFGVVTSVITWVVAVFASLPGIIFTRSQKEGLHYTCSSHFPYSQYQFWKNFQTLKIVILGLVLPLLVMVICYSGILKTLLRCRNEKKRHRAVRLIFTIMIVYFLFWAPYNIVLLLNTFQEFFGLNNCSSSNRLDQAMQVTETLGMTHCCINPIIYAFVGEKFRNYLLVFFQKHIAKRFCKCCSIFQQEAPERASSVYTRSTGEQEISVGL
Data set [5] in a line: Plasma clearance in rat at 3 mg/kg. It counts as ADME, organism-based. Also on record: dose 3 mg/kg.
Data set [6] has as its target T2, C-C chemokine receptor type 5. The data set can be described thus: Inhibition of CCR5.
Target sequence in this assay (P51681 whole entry): as the sequence (P51681 whole entry, looked up) above
Data set [7] is described as follows: Oral bioavailability in rat at 3 mg/kg. It counts as ADME, organism-based. As to conditions: in vivo.
A short description of data set [8]: Half life in rat at 3 mg/kg. It counts as ADME, organism-based. Also on record: dose 3 mg/kg. As to conditions: in vivo.
Data set [9] has as its system Monocyte. Briefly: Inhibition of MCP1-stimulated chemotaxis of human monocyte at 1 uM. It counts as functional.

pIC50: −log10 of the molar value.

Substance-P receptor, sequence (P25103 whole entry): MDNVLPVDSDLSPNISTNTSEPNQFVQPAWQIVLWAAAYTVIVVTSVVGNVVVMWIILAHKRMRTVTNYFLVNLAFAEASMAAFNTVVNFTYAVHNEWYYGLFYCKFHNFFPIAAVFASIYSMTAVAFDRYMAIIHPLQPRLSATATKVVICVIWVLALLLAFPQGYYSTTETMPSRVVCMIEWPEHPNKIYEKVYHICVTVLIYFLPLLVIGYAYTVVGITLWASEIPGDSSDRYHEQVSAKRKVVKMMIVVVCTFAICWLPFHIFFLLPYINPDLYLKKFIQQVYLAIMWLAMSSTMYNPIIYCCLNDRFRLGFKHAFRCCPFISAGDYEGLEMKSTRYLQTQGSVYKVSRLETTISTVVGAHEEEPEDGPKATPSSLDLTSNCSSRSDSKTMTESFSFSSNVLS

`O=C(NCc1cc(C(F)(F)F)cc(C(F)(F)F)c1)[C@@H](CCN1CCC(C2CCCCC2)CC1)c1ccc(F)cc1`: the inhibition in data set [1] is 20%. The same measure, in the same setting: the result for `O=C(NCc1cc(C(F)(F)F)cc(C(F)(F)F)c1)[C@@H](CCN1CC[C@@H]2c3ccccc3CC[C@H]2C1)c1ccc(F)cc1` reads 6%. For `CC1CN(CC[C@H](C(=O)NCc2cc(C(F)(F)F)cc(C(F)(F)F)c2)c2ccc(F)cc2)CCC12C=Cc1ccccc12` (stereo not given in full), the pIC50 in [2] is 7.35. Turning to `C[C@@H]1CN(CC[C@H](CNCc2cc(C(F)(F)F)cc(C(F)(F)F)c2)c2ccc(F)cc2)CC[C@@H]1c1ccccc1`, in data set [2], the pIC50 was 6.15. `O=C(NCc1cc(C(F)(F)F)cc(C(F)(F)F)c1)[C@@H](CCN1CCCC(Cc2ccccc2)C1)c1ccc(F)cc1` (stereo not given in full): the inhibition in data set [1] turned out to be 43%. As to `C[C@@H]1CN(CC[C@H](C(=O)NCc2cc(C(F)(F)F)cc(C(F)(F)F)c2)c2ccc(F)cc2)CC[C@]12C=Cc1ccccc12`, the pIC50 in data set [2] is 6.92; in the data set with Monocyte [3], 7.21.

Regarding `O=C(NCc1cc(C(F)(F)F)cc(C(F)(F)F)c1)[C@@H](CCCN1CCC(c2ccccc2)CC1)c1ccc(F)cc1`, in data set [2], the pIC50 is 5.96. As for `O=C(NCc1cc(C(F)(F)F)cc(C(F)(F)F)c1)[C@@H](CCN1CCC(c2ccccc2)C1)c1ccc(F)cc1` (stereo not given in full), the inhibition in data set [1] was determined as 44%.

`O=C(NCc1cc(C(F)(F)F)cc(C(F)(F)F)c1)[C@@H](CCN1CCC2(CCc3ccccc32)CC1)c1ccc(F)cc1` showed a pIC50 in [2] of 6.49. On the same count and under the same terms, the figure for `O=C(NCc1cc(C(F)(F)F)cc(C(F)(F)F)c1)[C@@H](CCCN1CCCCC1)c1ccc(F)cc1` is 6.00.

`O=C(NCc1cc(C(F)(F)F)cc(C(F)(F)F)c1)[C@@H](CCN1CCCCC1)c1ccc(F)cc1` had a pIC50 in data set [2] of 5.96.

With `O=C(NCc1cc(C(F)(F)F)cc(C(F)(F)F)c1)[C@@H](CCN1CCN(c2ccccc2)CC1)c1ccc(F)cc1`, the inhibition in data set [1] came to 11%. Consider `C[C@H]1CN(CC[C@H](C(=O)NCc2cc(C(F)(F)F)cc(C(F)(F)F)c2)c2ccc(F)cc2)CC[C@@]12C=Cc1ccccc12`, for which the results for the pIC50 (in data set [2]; with Monocyte [3]; on Substance-P receptor) were 7.23, 7.39 and 7.55, respectively. This molecule also returned an inhibition in data set [4] of 26%. In turn, `CC(C[C@H](C(=O)NCc1cc(C(F)(F)F)cc(C(F)(F)F)c1)c1ccc(F)cc1)N1CCC(c2ccccc2)CC1` (stereo not given in full) showed a pIC50 in data set [2] of 5.82. With `O=C(NCc1cc(C(F)(F)F)cc(C(F)(F)F)c1)[C@@H](CCN1CC(c2ccccc2)C1)c1ccc(F)cc1`, the inhibition in data set [1] was found to be 18%. Turning to `O=C(NCc1cc(C(F)(F)F)cc(C(F)(F)F)c1)[C@@H](CCN1CCC2(C=Cc3ccccc32)CC1)c1ccc(F)cc1`, the pIC50 is 7.10 in [2], 6.75 with Monocyte [3], 7.30 on Substance-P receptor and 7.52 in [6]. The clearance in data set [5] was 6 mL/min/kg. Further, in data set [7], the bioavailability worked out at 38%. In data set [8], this molecule showed a half-life of 8 h.

In data set [2], `O=C(NCc1cc(C(F)(F)F)cc(C(F)(F)F)c1)[C@@H](CCN1CCC(c2ccsc2)CC1)c1ccc(F)cc1` gave a pIC50 of 6.80. Turning to `C[C@H]1CN(CC[C@H](CNCc2cc(C(F)(F)F)cc(C(F)(F)F)c2)c2ccc(F)cc2)CC[C@@H]1c1ccccc1`, the negative-log IC50 (pIC50) in data set [2] was 6.85. Still for that read-out and setting: the figure for `CCC1CN(CC[C@H](C(=O)NCc2cc(C(F)(F)F)cc(C(F)(F)F)c2)c2ccc(F)cc2)CCC12C=Cc1ccccc12` (stereo not given in full) is 6.36.

In data set [1], `C=CCN1CCC(N(CC[C@H](C(=O)NCc2cc(C(F)(F)F)cc(C(F)(F)F)c2)c2ccc(F)cc2)C(=O)OCc2ccccc2)CC1` had an inhibition of 14%. On to `O=C(NCc1cc(C(F)(F)F)cc(C(F)(F)F)c1)[C@H](CCN1CCC(c2ccccc2)CC1)c1ccc(F)cc1`, for which the pIC50 in [2] was 6.03. `CC(CN1CCC(c2ccccc2)CC1)[C@H](CNCc1cc(C(F)(F)F)cc(C(F)(F)F)c1)c1ccc(F)cc1` (stereo not given in full) returned an inhibition in [1] of 0%.

In the case of `CC1CN(CC[C@H](C(=O)NCc2cc(C(F)(F)F)cc(C(F)(F)F)c2)c2ccc(F)cc2)CCN1c1ccccc1` (stereo not given in full), the pIC50 in [2] is 6.11.

On to `O=C(NCc1cc(C(F)(F)F)cc(C(F)(F)F)c1)[C@@H](CCN1CCC(c2ccccc2)CC1)c1ccc(F)cc1`, for which the pIC50 was 6.82 in data set [2], 7.62 against Substance-P receptor and 7.14 in [6]. Further, 1 µM produced 40% inhibition with Monocyte [9].

In the case of `CN(C)CCN[C@H](C(=O)NCc1cc(C(F)(F)F)cc(C(F)(F)F)c1)c1ccc(F)cc1`, the pIC50 in data set [2] was 6.14.

In turn, `O=C(NCc1cc(C(F)(F)F)cc(C(F)(F)F)c1)[C@@H](CCN1CCCC(c2ccccc2)CC1)c1ccc(F)cc1` (stereo not given in full) registered an inhibition in data set [1] of 3%. As for `C[C@](CCN1CCC(c2ccccc2)CC1)(CNCc1cc(C(F)(F)F)cc(C(F)(F)F)c1)c1ccc(F)cc1`, in [2], the pIC50 is 5.97.
